Measured values as given in PubChem BioAssay (NCI).
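Here, GI50 denotes the concentration required for 50% inhibition of growth. TGI is the concentration that stops growth completely.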

How the values were obtained:
Assay in all cases: growth of human tumour cells (NCI), 384-well format
[1] = tested on: UACC-257 melanoma
[2] = tested on: MCF7 breast
[3] = tested on: TK-10 renal
[4] = tested on: NCI-H522 lung
[5] = tested on: A498 renal
[6] = tested on: CAKI-1 renal
[7] = tested on: SK-MEL-28 melanoma
[8] = tested on: PC-3 prostate
[9] = tested on: SK-MEL-2 melanoma
[10] = tested on: MOLT-4 leukemia
[11] = tested on: SN12C renal
[12] = tested on: MDA-MB-468 breast
[13] = tested on: SK-MEL-5 melanoma
[14] = tested on: HT29 colon
[15] = tested on: IGROV1 ovarian
[16] = tested on: OVCAR-4 ovarian
[17] = tested on: RXF 393 renal
[18] = tested on: OVCAR-5 ovarian
[19] = tested on: NCI-H460 NSCLC
[20] = tested on: NCI-H226 lung
[21] = tested on: MDA-MB-231 breast
[22] = tested on: SW-620 colon
[23] = tested on: HCT-116 colon
[24] = tested on: SF-268 CNS
[25] = tested on: SR leukemia
[26] = tested on: NCI-H23 lung
[27] = tested on: UACC-62 melanoma
[28] = tested on: DU-145 prostate
[29] = tested on: HCT-15 colon
[30] = tested on: HOP-62 NSCLC
[31] = tested on: HOP-92 NSCLC
[32] = tested on: BT-549 breast
[33] = tested on: UO-31 renal
[34] = tested on: K-562 leukemia
[35] = tested on: KM12 colon
[36] = tested on: T-47D breast
[37] = tested on: 786-0 renal
[38] = tested on: A549 NSCLC
[39] = tested on: ACHN renal
[40] = tested on: U251 glioblastoma
[41] = tested on: MALME-3M melanoma
[42] = tested on: MDA-MB-435 melanoma
[43] = tested on: SNB-19 CNS
[44] = tested on: COLO 205 colon
[45] = tested on: SK-OV-3 ovarian
[46] = tested on: OVCAR-3 ovarian
[47] = tested on: SNB-75 CNS
[48] = tested on: SF-539 CNS
[49] = tested on: EKVX NSCLC
[50] = tested on: OVCAR-8 ovarian
[51] = tested on: M14 melanoma
[52] = tested on: NCI-H322M lung
[53] = tested on: HL-60(TB) leukemia
[54] = tested on: SF-295 CNS

CC[C@@]1(O)C(=O)OCc2c1cc1n(c2=O)Cc2c-1nc1cc(F)c(C)c3c1c2[C@@H](N)CC3
GI50 [1]: < 10 nM
TGI [1]: < 10 nM
GI50 [2]: < 10 nM
TGI [2]: < 10 nM
GI50 [3]: < 10 nM
TGI [3]: 608 nM
GI50 [4]: < 10 nM
TGI [4]: < 10 nM
GI50 [5]: < 10 nM
TGI [5]: 14.2 nM
GI50 [6]: < 10 nM
TGI [6]: 11.7 nM
GI50 [7]: < 10 nM
TGI [7]: 133 nM
GI50 [8]: < 10 nM
TGI [8]: 1050 nM
GI50 [9]: < 10 nM
TGI [9]: 29.2 nM
GI50 [10]: < 10 nM
TGI [10]: < 10 nM
GI50 [11]: < 10 nM
TGI [11]: < 10 nM
GI50 [12]: < 10 nM
TGI [12]: < 10 nM
GI50 [13]: < 10 nM
TGI [13]: < 10 nM
GI50 [14]: < 10 nM
TGI [14]: 10.7 nM
GI50 [15]: < 10 nM
TGI [15]: 103 nM
GI50 [16]: 19 nM
TGI [16]: 308 nM
GI50 [17]: < 10 nM
TGI [17]: < 10 nM
GI50 [18]: < 10 nM
TGI [18]: 43 nM
GI50 [19]: < 10 nM
TGI [19]: 16.7 nM
GI50 [20]: < 10 nM
TGI [20]: < 10 nM
GI50 [21]: 23.3 nM
TGI [21]: 617 nM
GI50 [22]: < 10 nM
TGI [22]: 108 nM
GI50 [23]: < 10 nM
TGI [23]: 22.1 nM
GI50 [24]: < 10 nM
TGI [24]: < 10 nM
GI50 [25]: < 10 nM
TGI [25]: < 10 nM
GI50 [26]: < 10 nM
TGI [26]: < 10 nM
GI50 [27]: < 10 nM
TGI [27]: < 10 nM
GI50 [28]: < 10 nM
TGI [28]: < 10 nM
GI50 [29]: < 10 nM
TGI [29]: 120 nM
GI50 [30]: < 10 nM
TGI [30]: < 10 nM
GI50 [31]: < 10 nM
TGI [31]: 11 nM
GI50 [32]: < 10 nM
TGI [32]: < 10 nM
GI50 [33]: < 10 nM
TGI [33]: < 10 nM
GI50 [34]: < 10 nM
TGI [34]: 132 nM
GI50 [35]: < 10 nM
TGI [35]: < 10 nM
GI50 [36]: < 10 nM
TGI [36]: < 10 nM
GI50 [37]: < 10 nM
TGI [37]: < 10 nM
GI50 [38]: < 10 nM
TGI [38]: 43.1 nM
GI50 [39]: < 10 nM
TGI [39]: < 10 nM
GI50 [40]: < 10 nM
TGI [40]: < 10 nM
GI50 [41]: < 10 nM
TGI [41]: 84 nM
GI50 [42]: < 10 nM
TGI [42]: 177 nM
GI50 [43]: < 10 nM
TGI [43]: 25.9 nM
GI50 [44]: < 10 nM
TGI [44]: 159 nM
GI50 [45]: < 10 nM
TGI [45]: < 10 nM
GI50 [46]: < 10 nM
TGI [46]: 31.7 nM
GI50 [47]: < 10 nM
TGI [47]: < 10 nM
GI50 [48]: < 10 nM
TGI [48]: < 10 nM
GI50 [49]: < 10 nM
TGI [49]: 243 nM
GI50 [50]: < 10 nM
TGI [50]: 39.8 nM
GI50 [51]: < 10 nM
TGI [51]: 18.7 nM
GI50 [52]: < 10 nM
TGI [52]: 17.4 nM
GI50 [53]: < 10 nM
TGI [53]: < 10 nM
GI50 [54]: < 10 nM
TGI [54]: < 10 nM
